Experimental data taken from ChEMBL document CHEMBL1201862, “PubChem BioAssay data set” (2004).
The source made the active and inactive calls.

Columns and labels:
[1] = rise of 2N DNA cells, HeLa – IC50, dose response (AID 1117349); type: functional, cell-based
Protein RecA = biological target: T1, Protein RecA (Mycobacterium tuberculosis, UniProt P9WHJ3); assay: Fluorescence Cell-Free Homogeneous Dose Retest to Identify Inhibitors of RecA-Intein Splicing Activity. [Related pubchem assays (depositor defined):AID2097, AID2223, AID489010, AID492950]; type: functional
T1 sequence (P9WHJ3 whole entry): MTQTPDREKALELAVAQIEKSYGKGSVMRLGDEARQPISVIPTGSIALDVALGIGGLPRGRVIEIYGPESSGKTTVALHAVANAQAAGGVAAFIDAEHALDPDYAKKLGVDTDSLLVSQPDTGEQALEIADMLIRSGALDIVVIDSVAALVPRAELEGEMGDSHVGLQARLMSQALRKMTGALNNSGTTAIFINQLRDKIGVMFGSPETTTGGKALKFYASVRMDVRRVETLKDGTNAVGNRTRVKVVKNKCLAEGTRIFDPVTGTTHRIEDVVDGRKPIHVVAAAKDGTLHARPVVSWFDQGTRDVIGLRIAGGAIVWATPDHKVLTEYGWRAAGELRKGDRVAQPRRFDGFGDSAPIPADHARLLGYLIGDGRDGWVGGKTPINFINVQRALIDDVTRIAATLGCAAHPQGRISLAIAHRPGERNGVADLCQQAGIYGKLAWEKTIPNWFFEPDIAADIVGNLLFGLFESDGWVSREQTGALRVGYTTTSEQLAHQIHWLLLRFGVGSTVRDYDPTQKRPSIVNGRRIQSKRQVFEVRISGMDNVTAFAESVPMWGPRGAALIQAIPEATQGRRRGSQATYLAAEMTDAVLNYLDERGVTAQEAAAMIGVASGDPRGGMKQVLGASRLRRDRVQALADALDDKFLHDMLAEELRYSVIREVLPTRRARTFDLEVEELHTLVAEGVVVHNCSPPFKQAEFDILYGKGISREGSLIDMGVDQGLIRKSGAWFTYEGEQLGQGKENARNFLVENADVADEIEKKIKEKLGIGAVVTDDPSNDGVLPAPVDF

[2] = biological target: Photoreceptor-specific nuclear receptor (Homo sapiens, UniProt Q9Y5X4); type: functional;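 further: potency for compounds that break the NR2E3 corepressor complex and count as activators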
Staphylococcus aureus = assay: Inhibitors of Bacterial Quorum Sensing Structure Activity Relationship (SAR) Analysis: Dose Response Assay. [Related pubchem assays: 700, 527 ]; type: functional, organism-based
[3] = biological target: T2, Replicative DNA helicase DnaB (Mycobacterium tuberculosis, UniProt P9WMR3); assay: DnaB intein splicing inhibitors, dose response, biochemical, cell-free fluorescence (AID 449749); type: functional
T2 sequence (P9WMR3 whole entry): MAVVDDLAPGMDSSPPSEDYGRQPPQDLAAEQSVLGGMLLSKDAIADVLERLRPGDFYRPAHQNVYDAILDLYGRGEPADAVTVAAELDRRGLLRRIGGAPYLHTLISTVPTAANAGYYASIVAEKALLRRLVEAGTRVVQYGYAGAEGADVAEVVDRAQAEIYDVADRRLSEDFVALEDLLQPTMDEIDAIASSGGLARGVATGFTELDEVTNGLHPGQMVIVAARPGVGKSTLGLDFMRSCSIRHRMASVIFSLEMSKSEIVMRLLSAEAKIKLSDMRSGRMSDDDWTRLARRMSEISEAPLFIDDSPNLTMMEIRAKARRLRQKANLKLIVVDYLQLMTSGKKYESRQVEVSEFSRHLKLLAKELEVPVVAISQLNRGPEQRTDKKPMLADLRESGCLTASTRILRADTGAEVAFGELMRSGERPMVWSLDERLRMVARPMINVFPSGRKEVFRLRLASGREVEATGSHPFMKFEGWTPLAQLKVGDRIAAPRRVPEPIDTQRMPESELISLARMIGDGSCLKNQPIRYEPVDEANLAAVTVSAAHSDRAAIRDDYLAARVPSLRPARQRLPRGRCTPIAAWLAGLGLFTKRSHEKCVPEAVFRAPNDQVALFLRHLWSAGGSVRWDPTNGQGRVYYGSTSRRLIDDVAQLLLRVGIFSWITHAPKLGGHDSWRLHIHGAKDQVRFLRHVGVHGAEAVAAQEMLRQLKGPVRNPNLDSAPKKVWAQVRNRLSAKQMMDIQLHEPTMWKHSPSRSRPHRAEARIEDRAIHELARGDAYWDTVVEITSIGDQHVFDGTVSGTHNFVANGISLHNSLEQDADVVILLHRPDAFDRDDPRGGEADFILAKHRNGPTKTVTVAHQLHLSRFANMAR

[4] = biological target: Proto-oncogene tyrosine-protein kinase ROS (Homo sapiens, UniProt P08922); type: functional;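 further: ROS1 tested as one member of a kinome-wide kinase panel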
[5] = biological target: Serine/threonine-protein kinase N2 (Homo sapiens, UniProt Q16513); type: functional
[6] = biological target: Leukocyte tyrosine kinase receptor (Homo sapiens, UniProt P29376); assay: Navigating the Kinome. Panel member name: LTK; type: functional
[7] = biological target: Receptor tyrosine-protein kinase erbB-4 (Homo sapiens, UniProt Q15303); type: functional;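 further: ERBB4 member of a kinome-wide kinase profiling panel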
[8] = biological target: Serine/threonine-protein kinase TAO1 (Homo sapiens, UniProt Q7L7X3); type: functional
[9] = biological target: Protein kinase C delta type (Homo sapiens, UniProt Q05655); type: functional
[10] = biological target: Megakaryocyte-associated tyrosine-protein kinase (Homo sapiens, UniProt P42679); type: functional;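 further: affinity measured as one member of a kinase panel (Navigating the Kinome) against MATK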
[11] = biological target: Serine/threonine-protein kinase TBK1 (Homo sapiens, UniProt Q9UHD2); assay: Navigating the Kinome. Panel member name: TBK1; type: functional
[12] = biological target: Casein kinase I isoform alpha (Homo sapiens, UniProt P48729); type: functional
[13] = biological target: 3-phosphoinositide-dependent protein kinase 1 (Homo sapiens, UniProt O15530); type: functional;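 further: value comes from the Navigating the Kinome panel, PDPK1 member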
[14] = biological target: Serine/threonine-protein kinase D2 (Homo sapiens, UniProt Q9BZL6); type: functional;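 further: measured against PRKD2 as one member of a kinome-wide kinase profiling panel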
[15] = biological target: Proto-oncogene tyrosine-protein kinase Src (Homo sapiens, UniProt P12931); type: functional;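 further: SRC entry within a kinome-wide kinase profiling panel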
[16] = biological target: Insulin-like growth factor 1 receptor (Homo sapiens, UniProt P08069); assay: Navigating the Kinome. Panel member name: IGF1R; type: functional
Activin receptor type-1 = Activin receptor type-1 (Homo sapiens, UniProt Q04771); assay: Navigating the Kinome. Panel member name: ACVR1; type: functional
[17] = biological target: Calcium/calmodulin-dependent protein kinase type 1 (Homo sapiens, UniProt Q14012); type: functional
[18] = biological target: Tyrosine-protein kinase JAK2 (Homo sapiens, UniProt O60674); type: functional;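 further: JAK2 tested as one member of a kinase panel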
[19] = biological target: G protein-coupled receptor kinase 5 (Homo sapiens, UniProt P34947); assay: Navigating the Kinome. Panel member name: GPRK5; type: functional
[20] = biological target: Rho-associated protein kinase 1 (Homo sapiens, UniProt Q13464); type: functional;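 further: measured within a broad kinome-wide panel profiling many kinases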

Chain of Photoreceptor-specific nuclear receptor (Q9Y5X4 whole entry): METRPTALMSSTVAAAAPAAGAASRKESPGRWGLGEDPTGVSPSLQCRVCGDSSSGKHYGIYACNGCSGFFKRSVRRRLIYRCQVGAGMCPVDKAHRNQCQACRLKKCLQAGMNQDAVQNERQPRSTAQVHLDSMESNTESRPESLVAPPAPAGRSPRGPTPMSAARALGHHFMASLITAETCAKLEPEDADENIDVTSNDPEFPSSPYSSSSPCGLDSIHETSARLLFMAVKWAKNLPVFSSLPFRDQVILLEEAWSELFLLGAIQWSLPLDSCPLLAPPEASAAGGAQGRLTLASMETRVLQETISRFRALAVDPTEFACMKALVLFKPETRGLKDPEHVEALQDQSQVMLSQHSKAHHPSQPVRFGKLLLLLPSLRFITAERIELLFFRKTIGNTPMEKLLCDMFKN
Chain of Proto-oncogene tyrosine-protein kinase Src (P12931 2-536 limits assumed): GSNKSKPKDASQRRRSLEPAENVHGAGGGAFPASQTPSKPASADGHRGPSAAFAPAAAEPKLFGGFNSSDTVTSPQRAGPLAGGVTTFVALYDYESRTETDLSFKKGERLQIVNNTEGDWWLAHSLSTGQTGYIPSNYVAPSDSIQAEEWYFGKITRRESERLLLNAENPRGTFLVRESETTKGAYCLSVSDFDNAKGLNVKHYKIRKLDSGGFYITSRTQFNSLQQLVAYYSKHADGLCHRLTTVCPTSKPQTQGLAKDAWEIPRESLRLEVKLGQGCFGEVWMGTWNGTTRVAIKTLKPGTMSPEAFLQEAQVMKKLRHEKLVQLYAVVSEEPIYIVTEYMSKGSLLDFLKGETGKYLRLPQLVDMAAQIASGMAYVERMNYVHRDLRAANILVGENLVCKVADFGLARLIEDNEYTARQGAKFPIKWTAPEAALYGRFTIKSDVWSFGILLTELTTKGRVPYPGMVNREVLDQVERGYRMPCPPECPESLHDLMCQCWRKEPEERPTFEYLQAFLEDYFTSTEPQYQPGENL
Chain of 3-phosphoinositide-dependent protein kinase 1 (O15530 whole entry): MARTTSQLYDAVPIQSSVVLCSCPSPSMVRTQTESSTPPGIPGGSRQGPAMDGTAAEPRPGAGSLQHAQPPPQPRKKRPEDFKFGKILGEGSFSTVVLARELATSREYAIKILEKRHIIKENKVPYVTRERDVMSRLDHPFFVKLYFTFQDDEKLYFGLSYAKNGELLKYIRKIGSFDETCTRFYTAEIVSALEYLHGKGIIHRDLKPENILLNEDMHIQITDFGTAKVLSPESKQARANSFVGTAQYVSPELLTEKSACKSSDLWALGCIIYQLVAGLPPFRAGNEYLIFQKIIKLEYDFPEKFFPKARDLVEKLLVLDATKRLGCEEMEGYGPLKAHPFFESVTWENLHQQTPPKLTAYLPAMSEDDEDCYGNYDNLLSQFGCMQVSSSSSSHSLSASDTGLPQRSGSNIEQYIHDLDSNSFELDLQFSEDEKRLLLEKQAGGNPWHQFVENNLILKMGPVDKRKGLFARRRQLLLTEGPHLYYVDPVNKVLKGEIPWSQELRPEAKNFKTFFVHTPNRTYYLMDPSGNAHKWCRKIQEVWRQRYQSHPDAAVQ
Chain of Serine/threonine-protein kinase TAO1 (Q7L7X3 whole entry): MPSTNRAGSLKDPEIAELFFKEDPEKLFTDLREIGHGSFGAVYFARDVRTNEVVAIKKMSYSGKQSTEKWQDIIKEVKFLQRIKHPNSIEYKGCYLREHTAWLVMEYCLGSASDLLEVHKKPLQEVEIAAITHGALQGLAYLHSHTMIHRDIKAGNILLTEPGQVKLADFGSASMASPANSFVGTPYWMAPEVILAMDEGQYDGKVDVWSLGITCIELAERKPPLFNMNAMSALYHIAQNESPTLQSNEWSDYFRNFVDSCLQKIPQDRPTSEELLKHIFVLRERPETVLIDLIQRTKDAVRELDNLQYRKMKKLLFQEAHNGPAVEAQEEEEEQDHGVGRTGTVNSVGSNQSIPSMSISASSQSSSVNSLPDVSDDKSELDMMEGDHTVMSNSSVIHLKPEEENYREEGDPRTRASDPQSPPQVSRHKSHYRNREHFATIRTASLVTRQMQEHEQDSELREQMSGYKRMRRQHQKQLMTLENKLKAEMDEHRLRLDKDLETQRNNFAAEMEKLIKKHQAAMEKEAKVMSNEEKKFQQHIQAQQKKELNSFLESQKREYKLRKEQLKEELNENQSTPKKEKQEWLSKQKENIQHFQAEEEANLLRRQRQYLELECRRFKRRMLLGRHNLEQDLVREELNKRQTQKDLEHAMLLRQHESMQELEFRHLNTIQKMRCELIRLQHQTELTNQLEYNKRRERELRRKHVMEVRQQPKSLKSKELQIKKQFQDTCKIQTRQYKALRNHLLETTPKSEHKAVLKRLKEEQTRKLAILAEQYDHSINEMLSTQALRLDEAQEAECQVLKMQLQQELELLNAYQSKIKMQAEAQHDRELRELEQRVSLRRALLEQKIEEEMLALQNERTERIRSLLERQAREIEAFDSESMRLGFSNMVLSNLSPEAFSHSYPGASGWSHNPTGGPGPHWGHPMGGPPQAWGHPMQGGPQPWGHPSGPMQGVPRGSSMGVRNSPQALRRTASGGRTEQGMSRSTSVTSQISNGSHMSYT
Chain of Casein kinase I isoform alpha (P48729 whole entry, canonical isoform): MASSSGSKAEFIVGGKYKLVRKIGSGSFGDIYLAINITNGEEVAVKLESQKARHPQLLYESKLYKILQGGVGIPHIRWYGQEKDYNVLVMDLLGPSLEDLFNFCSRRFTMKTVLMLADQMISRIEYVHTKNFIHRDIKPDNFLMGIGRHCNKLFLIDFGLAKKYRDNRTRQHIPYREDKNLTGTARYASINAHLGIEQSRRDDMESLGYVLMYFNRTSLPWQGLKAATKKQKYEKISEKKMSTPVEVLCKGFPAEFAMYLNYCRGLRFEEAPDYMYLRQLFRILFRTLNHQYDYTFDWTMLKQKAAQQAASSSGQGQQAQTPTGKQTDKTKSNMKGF
Chain of Tyrosine-protein kinase JAK2 (O60674 whole entry): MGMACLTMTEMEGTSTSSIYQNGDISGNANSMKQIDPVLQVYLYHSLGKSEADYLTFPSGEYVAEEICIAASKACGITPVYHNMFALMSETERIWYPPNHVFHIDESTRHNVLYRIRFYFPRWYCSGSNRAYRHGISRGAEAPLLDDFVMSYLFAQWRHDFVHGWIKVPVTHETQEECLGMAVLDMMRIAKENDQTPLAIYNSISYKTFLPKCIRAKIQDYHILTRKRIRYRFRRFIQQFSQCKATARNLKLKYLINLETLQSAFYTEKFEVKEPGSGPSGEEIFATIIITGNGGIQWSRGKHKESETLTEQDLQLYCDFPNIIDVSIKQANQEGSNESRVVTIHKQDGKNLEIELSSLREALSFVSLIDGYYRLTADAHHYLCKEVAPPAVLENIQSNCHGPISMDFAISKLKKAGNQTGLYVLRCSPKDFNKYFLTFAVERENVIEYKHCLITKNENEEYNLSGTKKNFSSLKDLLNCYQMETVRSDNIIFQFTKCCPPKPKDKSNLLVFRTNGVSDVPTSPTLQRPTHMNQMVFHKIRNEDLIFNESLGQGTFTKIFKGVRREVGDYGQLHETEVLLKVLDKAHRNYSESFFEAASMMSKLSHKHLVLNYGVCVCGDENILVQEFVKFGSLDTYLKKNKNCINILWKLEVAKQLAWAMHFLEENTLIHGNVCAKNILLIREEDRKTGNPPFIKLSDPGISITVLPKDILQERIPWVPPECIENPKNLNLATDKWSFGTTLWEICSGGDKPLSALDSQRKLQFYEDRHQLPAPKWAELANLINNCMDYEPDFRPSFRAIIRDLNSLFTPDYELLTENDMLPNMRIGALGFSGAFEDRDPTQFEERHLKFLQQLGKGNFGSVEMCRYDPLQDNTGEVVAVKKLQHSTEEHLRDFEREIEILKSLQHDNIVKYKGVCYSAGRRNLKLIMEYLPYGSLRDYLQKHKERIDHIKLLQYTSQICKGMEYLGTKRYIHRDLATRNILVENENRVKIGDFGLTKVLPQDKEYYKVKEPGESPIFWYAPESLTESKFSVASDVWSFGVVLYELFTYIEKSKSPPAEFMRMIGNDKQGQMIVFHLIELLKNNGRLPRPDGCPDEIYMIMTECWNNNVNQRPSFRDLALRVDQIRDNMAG
Chain of Serine/threonine-protein kinase N2 (Q16513 whole entry): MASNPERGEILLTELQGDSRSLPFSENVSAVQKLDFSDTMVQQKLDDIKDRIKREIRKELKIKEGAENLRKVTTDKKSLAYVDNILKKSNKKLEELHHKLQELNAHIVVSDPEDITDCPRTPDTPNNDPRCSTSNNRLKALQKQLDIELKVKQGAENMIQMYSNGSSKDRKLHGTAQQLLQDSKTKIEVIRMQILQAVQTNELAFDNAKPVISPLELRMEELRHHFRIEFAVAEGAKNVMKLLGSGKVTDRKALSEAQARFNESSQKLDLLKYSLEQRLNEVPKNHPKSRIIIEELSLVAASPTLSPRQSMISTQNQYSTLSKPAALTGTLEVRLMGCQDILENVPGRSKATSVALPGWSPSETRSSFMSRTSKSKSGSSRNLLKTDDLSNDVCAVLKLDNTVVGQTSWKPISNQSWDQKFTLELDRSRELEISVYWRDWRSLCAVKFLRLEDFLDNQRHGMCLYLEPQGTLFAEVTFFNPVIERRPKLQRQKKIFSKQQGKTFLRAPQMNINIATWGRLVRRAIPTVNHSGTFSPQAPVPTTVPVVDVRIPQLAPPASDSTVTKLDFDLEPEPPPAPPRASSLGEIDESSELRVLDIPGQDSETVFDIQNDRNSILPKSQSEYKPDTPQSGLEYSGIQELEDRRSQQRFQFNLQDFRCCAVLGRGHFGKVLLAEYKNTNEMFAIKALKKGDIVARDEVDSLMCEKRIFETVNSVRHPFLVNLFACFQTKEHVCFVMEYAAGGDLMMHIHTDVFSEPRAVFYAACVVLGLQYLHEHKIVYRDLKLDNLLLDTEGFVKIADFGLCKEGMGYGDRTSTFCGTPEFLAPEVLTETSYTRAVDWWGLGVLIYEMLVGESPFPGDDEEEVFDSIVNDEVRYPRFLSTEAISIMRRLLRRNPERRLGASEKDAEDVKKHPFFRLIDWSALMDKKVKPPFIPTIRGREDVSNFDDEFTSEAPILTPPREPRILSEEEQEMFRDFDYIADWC

In the case of CCc1oc2ccccc2c1C(=O)c1cc(Br)c(O)c(Br)c1 [BENZBROMARONE], the IC50 [1] is reported as > 10 µM (inactive), the EC50 (Protein RecA) is reported as 11.5 µM (active) and the IC50 [2] is reported as > 39.8 µM (not active). For the same compound, the IC50 (Staphylococcus aureus) was 0.131 µM (active) and the AC50 [3] was 2.75 µM (active).
For N#Cc1ccc2[nH]c(O)c(-c3ccc(CN4CCOCC4)cn3)c2c1 [AZD-1080], the Ki [4] was > 2 µM (inactive), the Ki [5] was > 6.31 µM (inactive) and the Ki [6] was > 2.51 µM (inactive). The Ki [7] was > 3.98 µM (inactive), the Ki [8] was > 7.94 µM (inactive) and the Ki [9] was > 7.94 µM (inactive). The Ki [10] was > 2 µM (inactive), the Ki [11] was > 3.16 µM (inactive) and the Ki [12] was > 5.01 µM (inactive). For the same compound, the Ki [13] was > 3.98 µM (inactive), the Ki [14] was 7.94 µM (active) and the Ki [15] was > 2 µM (inactive). The Ki [16] was > 2.51 µM (inactive), the Ki (Activin receptor type-1) was > 3.98 µM (inactive) and the Ki [17] was > 6.31 µM (inactive). For the same compound, the Ki [18] was > 2 µM (inactive), the Ki [19] was > 3.98 µM (inactive) and the Ki [20] was > 7.94 µM (inactive).
In the case of O=C1C=C(N2CCOCC2)c2ccccc2C1=O, the EC50 (Protein RecA) is reported as 0.15 µM (active), the IC50 [2] is reported as > 39.8 µM (not active) and the AC50 [3] is reported as 1.05 µM (active).
